Assay results as given in patent US20130064815A1, “INDUCING APOPTOSIS IN QUIESCENT CELLS” (THE TRUSTEES OF PRINCETON UNIVERSITY, priority 2011, published 2013).

Columns and labels:
G6PD = biological target: T1, G6PD (Homo sapiens, UniProt P11413); experiment: G6PD activity in fibroblasts treated with DHEA; format: cell-based
T1 construct: endogenous in cells; host or cells: primary human foreskin fibroblasts (proliferating or serum-starved)
From the text: Referring to FIGS. 18A and 18B, NADPH production is induced in quiescent fibroblasts. G6PD, PGD and IDH1 are expressed at low levels in proliferating fibroblasts, at higher levels in 7 dCI, 14 dCI and 14 dCI7 dSS fibroblasts, and at even higher levels in 4 dSS and 7 dSS fibroblasts (FIGS. 18A and 18B). Malic enzyme, another protein that generates NADPH but was not predicted to be differentially active in proliferating versus quiescent fibroblasts, was expressed at similar levels in cells in all conditions. The activity of the NADPH-producing enzymes in cytosolic or mitochondrial lysates collected from cells in different proliferative conditions is shown in FIG. 18A. Immunoblotting confirmed successful separation of mitochondrial and cytosolic proteins. Lysates were incubated with the appropriate substrate and the rate of enzymatic activity was determined based on the appearance or disappearance of NADH or NADPH. G6PD had the highest specific activity among the enzymes monitored, consistent with previous reports that it is the most important contributor to NAPDH levels. […] Thus NADPH-generating enzymes in the pentose-phosphate pathway are activated in serum-starved fibroblasts. […]

[1] = test system: extracellular glutathione; experiment: glutathione in conditioned medium by mass spectrometry; format: cell-based, human; conditions: 7 dSS fibroblasts; DHEA vs DMSO control
From the text: It was expected that the reduction in NADPH levels that resulted from DHEA treatment would result in lower activity of glutathione reductase and thus a decrease in the levels of reduced glutathione. […] The depletion of glutathione in response to DHEA could be an important part of the apoptotic pathway. Alternatively, because apoptosing cells can rapidly and selectively release glutathione to the extracellular environment (van den Dobbelsteen et al., 1996, “Rapid and specific efflux of reduced glutathione during apoptosis induced by anti-Fas/APO-1 antibody,” J Biol Chem 271, 15240-15427; Franco et al., “Glutathione depletion is necessary for apoptosis in lymphoid cells independent of reactive oxygen species,” J Biol Chem 282, 30452-30465, 2007, which are incorporated herein by reference as if fully set forth), the depletion of glutathione could represent a response to a distinct apoptotic trigger. Mass spectrometry was used to measure glutathione levels in conditioned medium from 7 dSS fibroblasts treated with DMSO as a control or with DHEA. There was no increase in extracellular glutathione in conditioned medium from DHEA-treated fibroblasts compared with controls; in fact, levels were lower, consistent with a DHEA-induced reduction in intracellular levels of reduced glutathione. […]

oxidized proteins = experiment: oxidized (carbonylated) protein immunoblot after DNP derivatization; format: cell-based, human; conditions: DHEA treatment
From the text: Glutathione plays an important role in ROS scavenging, both by acting as a cofactor for glutathione peroxidase and via direct interaction with ROS (Jones et al., “Kinetics of superoxide scavenging by glutathione: an evaluation of its role in the removal of mitochrondrial superoxide, Biochem Soc Trans 31, 1337-1339, 2003, which is incorporated herein by reference as if fully set forth). The effects of DHEA treatment on the levels of oxidized proteins were monitored in proliferating and 7 dSS fibroblasts (FIG. 20). Oxidized, carbonylated proteins were derivatized with […] and monitored with an anti-2,4, dinitrophenol antibody. […] Thus, the 7 dSS fibroblasts rely on DHEA-sensitive pathways to maintain low levels of oxidized protein.
In addition to its role in providing amino acids and energy under starvation conditions, autophagy is involved in maintenance of cellular homeostasis and resistance to tumorigenesis through degradation of old or damaged proteins and entire organelles. […] To monitor the extent of protein oxidation in proliferating and contact-inhibited fibroblasts, the protein carbonyl groups were derivatized using 2,4-dinitrophenylhydrazine (DNP), and monitored using immunoblotting with an antibody that recognizes the covalently added DNP. […]

tumor cells = conditions: intraperitoneal injection of tumor cells; cited from earlier work
colon cancer = conditions: in vivo; cited from earlier work
[2] = test system: spontaneous breast cancer; conditions: long-term treatment; female C3H (Avy/a) mice; cited from earlier work
[3] = test system: low-grade cervical lesions; conditions: 12 women with low-grade dysplasia; intravaginal; cited from earlier work

T1 sequence (P11413 whole entry): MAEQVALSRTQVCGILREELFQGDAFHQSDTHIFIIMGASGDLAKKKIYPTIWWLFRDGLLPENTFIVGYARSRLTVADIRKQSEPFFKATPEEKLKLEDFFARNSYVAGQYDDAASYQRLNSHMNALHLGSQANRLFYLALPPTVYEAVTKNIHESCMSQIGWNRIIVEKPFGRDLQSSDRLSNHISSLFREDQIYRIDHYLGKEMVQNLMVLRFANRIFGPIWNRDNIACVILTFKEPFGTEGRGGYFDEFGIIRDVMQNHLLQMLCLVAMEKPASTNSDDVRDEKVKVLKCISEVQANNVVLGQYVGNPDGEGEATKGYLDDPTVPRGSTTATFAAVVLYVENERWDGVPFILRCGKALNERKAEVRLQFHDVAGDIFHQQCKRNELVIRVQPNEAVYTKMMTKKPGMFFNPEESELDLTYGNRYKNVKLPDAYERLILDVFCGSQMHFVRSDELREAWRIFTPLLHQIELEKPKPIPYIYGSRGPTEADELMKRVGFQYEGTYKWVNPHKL

With C[C@]12CC[C@H](O)CC1=CC[C@@H]1[C@@H]2CC[C@]2(C)C(=O)CC[C@@H]12 [DHEA, dehydroepiandrosterone] the G6PD activity (G6PD; proliferating cells treated with DHEA) was “declined”, the G6PD activity (G6PD; serum-starved fibroblasts treated with DHEA) was “significantly declined” and the “extracellular glutathione in conditioned medium” value [1] was “no increase”. The oxidized protein levels (oxidized proteins; 7 dSS fibroblasts) was “significantly increased”, the oxidized protein levels (oxidized proteins; proliferating fibroblasts) was “little effect” and the tumor growth (tumor cells) was “inhibit tumor growth”. For the same molecule, the “effect on colon cancer” value (colon cancer) was “chemopreventative effect”, the “spontaneous breast cancer occurrence” value [2] was “inhibit spontaneous breast cancer occurrence” and the “regression of low-grade cervical lesions” value [3] was “may promote regression of low-grade cervical lesions”. For the same molecule, the safety [3] was “safe to administer”.
